Source: paper doi:10.1101/2022.04.25.489410v1 (biorxiv, 2022)

Tests used:
Assay type in all cases: biochemical, uncultured bacterium
SN243 [1] = test: absorbance at […] nm, initial rates, Michaelis-Menten fit; settings: 100 mM Tris pH 8.0, 150 mM NaCl, 25 °C
SN243 [2] = test: product inhibition of pNP-β-GlcA hydrolysis; settings: 10 μM pNP-β-GlcA; 100 mM Tris pH 8.0, 150 mM NaCl, 25 °C
SN243 [3] = test: fluorescence, initial rates, Michaelis-Menten fit; settings: 100 mM Tris pH 8.0, 150 mM NaCl, 25 °C

SMILES | Km (SN243 [1]) | further results
O=C(O)[C@H]1O[C@@H](Oc2ccc([N+](=O)[O-])cc2)[C@H](O)[C@@H](O)[C@@H]1O [pNP-β-GlcA] | 0.0137 mM | –
O=C(O)[C@H]1OC(O)[C@H](O)[C@@H](O)[C@@H]1O (some centres unmarked) [GlcA] | – | IC50 (SN243 [2]): 179 µM
O=[N+]([O-])c1ccc(O[C@@H]2OC[C@@H](O)[C@H](O)[C@H]2O)cc1 [pNP-β-Xyl] | 23 ± 0.9 mM | –
O=C1OC2(c3ccc(O[C@@H]4O[C@H](C(=O)O)[C@@H](O)[C@H](O)[C@H]4O)cc3Oc3cc(O[C@@H]4O[C@H](C(=O)O)[C@@H](O)[C@H](O)[C@H]4O)ccc32)c2ccccc21 [FD-β-GlcA] | – | Km (SN243 [3]): 0.008 mM
O=[N+]([O-])c1ccc(O[C@@H]2O[C@H](CO)[C@@H](O)[C@H](O)[C@H]2O)cc1 [pNP-β-Glc] | 56.5 ± 4.1 mM | –
